Laboratory results: patent US11548888B2, “KRas G12C inhibitors” (Mirati Therapeutics, Inc., priority 2019, dated 2023)

The molecules below were run against T1, KRas G12C (Homo sapiens, UniProt P01116, G12C) (assay: Inhibition of KRas G12C-dependent cell growth: Phospho-ERK in NCI-H358 cells). Conditions: NCI-H358 cells expressing KRas G12C; Phospho-ERK (Thr202/Tyr204) normalized to GAPDH; 3 hours compound; 4 parameter fit.
T1 construct: NCI-H358 cells (ATCC CRL-5807) express KRas G12C
Assay type: cell-based
Protocol: The cellular inhibition of KRAs G12C by exemplary compounds of the present invention was determined by measuring the amount of a downstream marker of KRas activity, phosphorylated ERK (“Phospho-ERK”).
NCI-H358 cells (ATCC CRL-5807) express KRas G12C and were grown in RPMI medium supplemented with 10% fetal bovine serum, penicillin/streptomycin and 10 mM HEPES. Cells were plated in poly-D-Lysine coated 96-well plates at a concentration of 50,000 cells/well and allowed to attach for 8-12 hours. Diluted compounds were then added at a final concentration of 0.5% DMSO. After 3 hours, the medium was removed, 150 μL of 4% formaldehyde was added and the plates were incubated for 20 minutes. The plates were washed with PBS, and permeabilized using 150 μL of ice cold 100% methanol for 10 minutes. Non-specific antibody binding to the plates was blocked using 100 μL Licor Blocking Buffer (Li-Cor Biotechnology, Lincoln Nebr.) for 1 hour at room temperature. Positive control samples and samples lacking cells were parallel processed with test samples as standards.
The amount Phospho-ERK was determined using an antibody specific for the phosphorylated form of ERK and compared to the amount of GAPDH. Primary antibodies used for detection were added as follows: Phospho-ERK (Cell Signaling cs9101) diluted 1:500 and GAPDH (Millipore MAB374) diluted 1:5000 in Licor block+0.05% Tween 20. The plates were incubated for 2 hours at room temperature. The plates were washed with PBS+0.05% Tween 20.
Secondary antibodies used to visualize primary antibodies were added as follows: Anti-rabbit-680 diluted 1:1000 and Anti-mouse-800 diluted 1:1000 in Licor Block+0.05% Tween 20 and incubated for 1 hour at room temperature. The plates were washed with PBS+0.05% Tween 20. A 100 μL aliquot of PBS was added to each well and the plates were read on a LICOR AERIUS plate reader.
The pERK(Thr202/Tyr204) signal was normalized with the GAPDH signal and percent of DMSO control values were calculated. IC50 values were generated using a 4 parameter fit of the dose response curve.

T1 sequence (P01116 1-188 isoform P01116-2 G12C): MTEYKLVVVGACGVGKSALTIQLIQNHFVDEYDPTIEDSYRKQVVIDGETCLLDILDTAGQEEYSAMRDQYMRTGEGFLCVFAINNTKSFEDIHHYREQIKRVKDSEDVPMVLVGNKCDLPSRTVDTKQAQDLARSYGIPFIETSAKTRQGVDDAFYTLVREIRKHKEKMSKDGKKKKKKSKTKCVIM

SMILES	IC50 [µM]
C=C(F)C(=O)N1CCN(c2nc(OCC3CCN3C(C)(C)C)nc3c(F)c(-c4cccc5cccc(Cl)c45)ncc23)C[C@@H]1CC#N (stereo partly drawn) [Example 59, 2-[(2S)-4-[2-[(1-tert-butylazetidin-2-yl)methoxy]-7-(8-chloro-1-naphthyl)-8-fluoro-pyrido[4,3-d]pyrimidin-4-yl]-1-(2-fluoroprop-2-enoyl)piperazin-2-yl]acetonitrile]	0.06
C=C(F)C(=O)N1CCN(c2nc(OCCC(F)(F)F)nc3c(F)c(-c4cccc5ccc(F)c(Cl)c45)ncc23)C[C@@H]1CC#N [Example 104]	0.699
C=C(F)C(=O)N1CCN(c2nc(OC[C@@H]3C[C@@H](F)CN3C)nc3c(F)c(-c4cncc5cccc(Cl)c45)ncc23)C[C@@H]1CC#N [Example 52, 2-[(2S)-4-[7-(5-chloro-4-isoquinolyl)-8-fluoro-2-[[(2S,4R)-4-fluoro-1-methyl-pyrrolidin-2-yl]methoxy]pyrido[4,3-d]pyrimidin-4-yl]-1-(2-fluoroprop-2-enoyl)piperazin-2-yl]acetonitrile]	0.023
C=CC(=O)N1CCN(c2nc(OCC34CCCN3CCC4)nc3c(F)c(-c4cccc5ccc(F)c(Cl)c45)ncc23)CC1 [Example 102]	0.012
C=C(F)C(=O)N1CCN(c2nc(OC[C@@H]3C[C@@H](OC)CN3C)nc3c(F)c(-c4cccc5cccc(C)c45)ncc23)C[C@@H]1CC#N [Example 15, 2-[(2S)-4-[8-fluoro-2-[[(2S,4R)-4-methoxy-1-methyl-pyrrolidin-2-yl]methoxy]-7-(8-methyl-1-naphthyl)pyrido[4,3-d]pyrimidin-4-yl]-1-(2-fluoroprop-2-enoyl)piperazin-2-yl]acetonitrile]	0.05
C=CC(=O)N1CC2(CCN(c3nc(OC[C@@H]4CCCN4C)nc4c(F)c(-c5cccc6cccc(Cl)c56)ncc34)CC2)C1 [Example 85]	0.519
C=CC(=O)N1CCN(c2nc(OC[C@@H]3CCCN3C)nc3c(F)c(-c4cccc5ccccc45)ncc23)C[C@@H]1CC#N [Example 7, 2-[(2S)-4-[8-fluoro-2-[[(2S)-1-methylpyrrolidin-2-yl]methoxy]-7-(1-naphthyl)pyrido[4,3-d]pyrimidin-4-yl]-1-prop-2-enoyl-piperazin-2-yl]acetonitrile]	0.007
C=C(F)C(=O)N1CCN(c2nc(OC[C@@H]3C[C@@H](OC)CN3C)nc3c(F)c(-c4cncc5cccc(Cl)c45)ncc23)C[C@@H]1CC#N [Example 56, 2-[(2S)-4-[7-(5-chloro-4-isoquinolyl)-8-fluoro-2-[[(2S,4R)-4-methoxy-1-methyl-pyrrolidin-2-yl]methoxy]pyrido[4,3-d]pyrimidin-4-yl]-1-(2-fluoroprop-2-enoyl)piperazin-2-yl]acetonitrile]	0.028
C=C(F)C(=O)N1CCN(c2nc(OCC34CCCN3CCOC4)nc3c(F)c(-c4cccc5ccc(F)c(Cl)c45)ncc23)C[C@@H]1CC#N (some centres unmarked) [Example 144]	0.035
C=CC(=O)N1CCN(c2ncnc3cc(-c4cc(O)cc5ccccc45)ncc23)CC1 [Example 1, 1-(4-(7-(3-hydroxynaphthalen-1-yl)pyrido[4,3-d]pyrimidin-4-yl)piperazin-1-yl)prop-2-en-1-one]	1.92
C=C(F)C(=O)N1CCN(c2nc(OCC3CCO3)nc3c(F)c(-c4cccc5ccc(F)c(Cl)c45)ncc23)C[C@@H]1CC#N (some centres unmarked) [Example 156]	0.134
C=C(F)C(=O)N1CCN(c2nc(OCCN(C)C)nc3c(F)c(-c4cccc5cccc(Cl)c45)ncc23)C[C@@H]1CC#N [Example 68]	0.086
C=C(F)C(=O)N1CCN(c2nc(OCC3CCN3C)nc3c(F)c(-c4cccc5cccc(Cl)c45)ncc23)C[C@@H]1CC#N (some centres unmarked) [Example 71]	0.013
C=C(F)C(=O)N1CCN(c2nc(OC[C@@H]3C[C@@H](F)CN3C)nc3c(F)c(-c4cccc5cccc(Cl)c45)ncc23)C[C@@H]1CC#N [Example 42, 2-[(2S)-4-[7-(8-chloro-1-naphthyl)-8-fluoro-2-[[(2S,4R)-4-fluoro-1-methyl-pyrrolidin-2-yl]methoxy]pyrido[4,3-d]pyrimidin-4-yl]-1-(2-fluoroprop-2-enoyl)piperazin-2-yl]acetonitrile]	0.018
COC/C=C/C(=O)N1CCN(c2nc(OC[C@@H]3C[C@@H](OC)CN3C)nc3c(F)c(-c4cccc5cccc(C)c45)ncc23)C[C@@H]1CC#N [Example 57, 2-[(2S)-4-[8-fluoro-2-[[(2S,4R)-4-methoxy-1-methyl-pyrrolidin-2-yl]methoxy]-7-(8-methyl-1-naphthyl)pyrido[4,3-d]pyrimidin-4-yl]-1-[(E)-4-methoxybut-2-enoyl]piperazin-2-yl]acetonitrile]	0.058
C=C(F)C(=O)N1CCN(c2nc(OC[C@@H]3CCCN3C)nc3c(C#N)c(-c4cccc5cccc(C)c45)ncc23)C[C@@H]1CC#N [Example 58, 4-[(3S)-3-(cyanomethyl)-4-(2-fluoroprop-2-enoyl)piperazin-1-yl]-7-(8-methyl-1-naphthyl)-2-[[(2S)-1-methylpyrrolidin-2-yl]methoxy]pyrido[4,3-d]pyrimidine-8-carbonitrile]	0.33
C=C(F)C(=O)N1CCN(c2nc(OC[C@@H]3CCCN3C3CCC3)nc3c(F)c(-c4cccc5ccc(F)c(Cl)c45)ncc23)C[C@@H]1CC#N [Example 140]	0.014
CN1C[C@H](F)C[C@H]1COc1nc(N2CCN(C(=O)/C=C/CF)[C@@H](CC#N)C2)c2cnc(-c3cncc4cccc(Cl)c34)c(F)c2n1 [Example 53, 2-[(2S)-4-[7-(5-chloro-4-isoquinolyl)-8-fluoro-2-[[(2S,4R)-4-fluoro-1-methyl-pyrrolidin-2-yl]methoxy]pyrido[4,3-d]pyrimidin-4-yl]-1-[(E)-4-fluorobut-2-enoyl]piperazin-2-yl]acetonitrile]	0.017

Next, values leading:

IC50 [µM]	SMILES
0.064	C=C(F)C(=O)N1CCN(c2nc(OC[C@@H]3CN(C)C[C@@H]3F)nc3c(F)c(-c4cccc5ccc(F)c(Cl)c45)ncc23)C[C@@H]1CC#N [Example 194]
10	C=CC(=O)N1CCCC12CCN(c1ncnc3c(F)c(-c4cccc5ccc(F)c(Cl)c45)ncc13)C2 (centres unmarked) [Example 233]
0.362	C=C(F)C(=O)N1CCN(c2nc(OCC3CN(C)CC3(F)F)nc3c(F)c(-c4cccc5ccc(F)c(Cl)c45)ncc23)C[C@@H]1CC#N (single isomer, unassigned) [Example 180]
0.035	C=CC(=O)N1CC[C@@H]2[C@H]1CN2c1nc(OC[C@@H]2[C@H]3C[C@H]3CN2C)nc2c(F)c(-c3cccc4ccc(F)c(Cl)c34)ncc12 [Example 253]
0.015	C=C(F)C(=O)N1CCN(c2nc(OC[C@@H]3[C@H]4C[C@H]4CN3C)nc3c(F)c(-c4cccc5ccc(F)c(Cl)c45)ncc23)C[C@@H]1CC#N [Example 191]
0.063	C=CC(=O)N1CCN(c2ncnc3c(F)c(-c4cc(O)cc5cccc(Cl)c45)ncc23)CC1 [Example 178]
0.023	C=C(F)C(=O)N1CCN(c2nc(OC[C@@H]3CCCN3C)nc3c(F)c(-c4cccc5ccc(F)c(F)c45)ncc23)C[C@@H]1CC#N [Example 157]
10	C=CC(=O)N1CCN(c2ncnc3c(F)c(-c4cccc5cc(C)ccc45)ncc23)CC1 [Example 302, 1-(4-(8-fluoro-7-(6-methylnaphthalen-1-yl)pyrido[4,3-d]pyrimidin-4-yl)piperazin-1-yl)prop-2-en-1-one]
10	C=CS(=O)(=O)N1CCN(c2ncnc3c(F)c(-c4cccc5ccc(F)c(Cl)c45)ncc23)CC1 [Example 205]
0.031	C=C(F)C(=O)N1CCN(c2nc(OC[C@H]3[C@@H]4CC[C@@H](C4)N3CCF)nc3c(F)c(-c4cccc5ccc(F)c(Cl)c45)ncc23)C[C@@H]1CC#N [Example 195]
0.158	C=CC(=O)N1CCN(c2nc(OC[C@@H]3CCCN3C)nc3c(F)c(-c4cccc5ccc(F)c(Cl)c45)ncc23)CC1C(F)F (some centres unmarked) [Example 165]
1.33	C#Cc1c(F)ccc2cccc(-c3ncc4c(N5C[C@@H]6[C@H]5CCN6C(=O)C(=C)F)ncnc4c3F)c12 [Example 299, 1-((1R,5R)-6-(7-(8-ethynyl-7-fluoronaphthalen-1-yl)-8-fluoropyrido[4,3-d]pyrimidin-4-yl)-2,6-diazabicyclo[3.2.0]heptan-2-yl)-2-fluoroprop-2-en-1-one]
0.005	C=CC(=O)N1CC[C@@H]2[C@H]1CN2c1nc(OCC23CCCN2CCC3)nc2c(F)c(-c3cccc4ccc(F)c(Cl)c34)ncc12 [Example 227]
10	C=CC(=O)N1CCN(c2ncnc3c(F)c(-c4ccccc4C(C)C)ncc23)CC1 [Example 222]
